Experimental data reported in EPA's ToxValDB 9.5 (doi:10.2903/j.efsa.2012.2496).

How the values were obtained:
Canidae = conditions: oral, Dog Other, organ weight
Mus musculus = conditions: subchronic; duration: 90 days; oral; organ weight
Oryctolagus sp. = conditions: developmental; development

**Q.** How did the NOAEL (Canidae; chronic, duration: 1 years) turn out when `C=CCSC(=O)n1c(N)c(-c2ccccc2C)c(=O)n1C(C)C` [Fenpyrazamine] was run?
**A.** 25 mg/kg-day

**Q.** What about the NOAEL (Canidae; subchronic, duration: 90 days) of the same compound?
**A.** 25 mg/kg-day

**Q.** What about the LD50 (Rattus norvegicus; acute, oral, mortality) of the same compound?
**A.** > 2000 mg/kg-day

**Q.** What about the NOAEL (Rattus norvegicus; chronic, duration: 2 years, M, histopathology: nonneoplastic) of the same compound?
**A.** 12.7 mg/kg-day

**Q.** What about the NOAEL (Rattus norvegicus; reproduction developmental, F, organ weight) of the same compound?
**A.** 20.3 mg/kg-day

**Q.** And the NOAEL (Rattus norvegicus; reproduction developmental, M, organ weight)?
**A.** 20 mg/kg-day

**Q.** And the NOEL (Rattus norvegicus; reproduction developmental, body weight)?
**A.** 28.5 mg/kg-day

**Q.** And the LC50 (Colinus virginianus; acute, oral, diet, mortality)?
**A.** > 954 mg/kg-day

**Q.** And the LD50 (Colinus virginianus; acute, oral, mortality)?
**A.** > 2000 mg/kg-day

**Q.** And the NOEC (Colinus virginianus; reproduction developmental)?
**A.** 82.9 mg/kg-day

**Q.** What about the NOAEL (Mus musculus) of the same compound?
**A.** 28 mg/kg-day

**Q.** And the NOAEL (Oryctolagus sp.)?
**A.** 30 mg/kg-day
